Assay results: patent US9023789B2, “Amylin analogs and pharmaceutical compositions thereof” (Novo Nordisk A/S, priority 2012, dated 2015)
pIC50: −log10 of the molar value. Values after ≈ are worked out from the molar mass of the structure shown. Read-outs that look alike come from different tables or passages of the source. Numbered stars: 1 amine (or outer) side, 2 acyl side, 3 side chain; on linkers, the order of the positions; unused ones are H or OH. Bridge positions count the residues as written; N and C are the ends. Side chains are listed from the residue outwards. Peptide text beside a SMILES is read from it. * marks the point of attachment. C20 diacid = O=C(O)CCCCCCCCCCCCCCCCCCC(=O)*; γGlu = O=C(O)[C@H](CCC(=O)[*:2])N[*:1]

Key:
rat calcitonin receptor = target: T1, rat calcitonin receptor (Rattus norvegicus, UniProt P32214); experiment: ASSAY (VIII) binding to the rat calcitonin receptor; settings: Table 7, read-out: rCTR bind IC50
T1 construct: expressed in transfected cells; host or cells: BHK tk'ts 13 (transient, FuGENE 6), membranes
T1 sequence (P32214 25-479 isoform P32214-2 limits assumed): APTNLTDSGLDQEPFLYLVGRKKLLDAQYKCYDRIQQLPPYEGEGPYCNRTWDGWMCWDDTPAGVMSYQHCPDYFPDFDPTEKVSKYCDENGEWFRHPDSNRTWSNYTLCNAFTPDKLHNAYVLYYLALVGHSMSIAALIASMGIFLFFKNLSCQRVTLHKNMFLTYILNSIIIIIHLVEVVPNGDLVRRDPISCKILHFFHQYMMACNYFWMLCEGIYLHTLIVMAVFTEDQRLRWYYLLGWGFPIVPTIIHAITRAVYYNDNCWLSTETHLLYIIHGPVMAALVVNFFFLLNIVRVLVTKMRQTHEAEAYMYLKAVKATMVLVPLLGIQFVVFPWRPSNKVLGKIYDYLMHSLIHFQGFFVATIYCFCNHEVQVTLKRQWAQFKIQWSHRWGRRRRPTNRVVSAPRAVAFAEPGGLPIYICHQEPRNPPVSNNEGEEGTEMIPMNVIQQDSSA
Method in brief: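 Cell membranes for binding came from BHK tk′ts 13 cells harvested approximately 48 hours after transient transfection with the rat receptor.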

[1] = ASSAY (IV) determination of solubility; format: physicochemical
Method in brief: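 Samples of polypeptide, prepared from a water stock at […] and diluted 1:1 into 100 mM buffers spanning pH 3.0 to 8.0, stood 18 hours at room temperature. Polypeptide concentration was then determined by UPLC following centrifugation.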

[2] = target: T2, rat amylin receptor (rat calcitonin receptor + rat RAMP 3) (Rattus norvegicus, UniProt P32214+Q9JJ73); experiment: ASSAY (VI) binding to the rat amylin receptor; settings: for pIC50: binding to rat amylin receptor, read-out: rAmylin-R bind IC50
T2 construct: expressed in transfected cells; host or cells: BHK tk'ts 13 (transient, FuGENE 6), membranes
T2 sequence (P32214 25-479 isoform P32214-2 limits assumed): T1 sequence (P32214 25-479 isoform P32214-2 limits assumed)
T2 sequence (Q9JJ73 23-147 partner): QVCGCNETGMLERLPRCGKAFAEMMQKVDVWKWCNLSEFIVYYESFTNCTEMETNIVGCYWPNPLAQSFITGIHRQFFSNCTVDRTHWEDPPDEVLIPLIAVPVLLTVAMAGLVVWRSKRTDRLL
Method in brief: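 Membranes for this rat amylin receptor binding assay came from BHK tk′ts 13 cells. The cells were transiently transfected with rat calcitonin receptor using the FuGENE® 6 reagent from Roche, as the manufacturer recommends. The cells were collected approximately 48 hours after transfection, and membranes were then prepared.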

[3] = target: T3, human amylin receptor (membranes from Amylin 3(a)/CRE-luc cells) (Homo sapiens, UniProt O60896+P30988); experiment: ASSAY (V) binding to the human amylin receptor (SPA, 125I-rat amylin);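 also: competition binding of cell membranes (35 ng/µL) mixed with SPA beads in 384-well plates at 40 µL total volume, read by scintillation counting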
T3 construct: expressed in transfected cells
T3 sequence (P30988 25-474): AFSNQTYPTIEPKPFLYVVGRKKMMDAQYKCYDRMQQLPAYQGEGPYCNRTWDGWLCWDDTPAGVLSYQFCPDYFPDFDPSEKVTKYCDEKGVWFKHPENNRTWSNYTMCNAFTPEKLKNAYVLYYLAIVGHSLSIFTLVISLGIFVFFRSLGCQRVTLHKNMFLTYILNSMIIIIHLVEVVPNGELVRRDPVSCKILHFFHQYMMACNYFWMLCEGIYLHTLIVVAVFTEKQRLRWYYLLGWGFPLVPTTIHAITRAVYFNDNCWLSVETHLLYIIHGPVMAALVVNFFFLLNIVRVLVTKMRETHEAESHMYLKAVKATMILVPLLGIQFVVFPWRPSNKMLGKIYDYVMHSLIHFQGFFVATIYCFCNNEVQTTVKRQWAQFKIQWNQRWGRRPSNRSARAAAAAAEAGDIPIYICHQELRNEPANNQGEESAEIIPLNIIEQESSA
T3 sequence (O60896 24-148 partner): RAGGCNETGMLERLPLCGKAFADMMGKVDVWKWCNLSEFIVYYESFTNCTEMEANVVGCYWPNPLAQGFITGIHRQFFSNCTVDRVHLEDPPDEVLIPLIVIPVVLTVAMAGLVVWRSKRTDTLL

[4] = bistrispropane buffer, pH 6.5, read-out: Solubility pH 6.5 Concentration
[5] = bistrispropane buffer, pH 7.5, read-out: Solubility pH 7.5 Concentration
[6] = bistrispropane buffer, pH 6.0, read-out: Solubility pH 6.0 Concentration
[7] = bistrispropane buffer, pH 7.0, read-out: Solubility pH 7.0 Concentration
[8] = bistrispropane buffer, pH 8.0, read-out: Solubility pH 8.0 Concentration
[9] = glycylglycine buffer, pH 3.0, read-out: Solubility pH 3.0 Concentration
[10] = glycylglycine buffer, pH 4.0, read-out: Solubility pH 4.0 Concentration
[11] = glycylglycine buffer, pH 5.0, read-out: Solubility pH 5.0 Concentration
[12] = Table 7, rat binding selectivity, rCTR IC50 / rAmylin-R IC50
[13] = Table 7a (preferred compounds), rat binding selectivity, rCTR IC50 / rAmylin-R IC50
[14] = ratio of rCTR bind IC50 to rAmylin-R bind IC50
[15] = Table 5, selectivity, hCTR bind IC50 / hAmylin-R bind IC50
[16] = Table 5a, selectivity, hCTR bind IC50 / hAmylin-R bind IC50
[17] = Table 5b, selectivity, hCTR bind IC50 / hAmylin-R bind IC50
[18] = Table 5c, selectivity, hCTR bind IC50 / hAmylin-R bind IC50
[19] = Table 7, human binding selectivity, included for comparison
[20] = Table 7a (preferred compounds), human binding selectivity, included for comparison
[21] = ratio of human calcitonin receptor binding IC50 to human amylin receptor binding IC50

pIC50 (rat calcitonin receptor) | solubility at 18 h [1, 4] [µM] | solubility at 18 h [1, 5] [µM] | solubility at 18 h [1, 6] [µM] | solubility at 18 h [1, 7] [µM] | solubility at 18 h [1, 8] [µM] | solubility at 18 h [1, 9] [µM] | solubility at 18 h [1, 10] [µM] | solubility at 18 h [1, 11] [µM] | pIC50 ([2]; Table 7) | Ratio rCT/rAmylin binding [2, 12] | Ratio rCT/rAmylin binding [2, 13] | Ratio rCT/rAmylin binding [2, 14] | Ratio hCT/hAmylin binding [3, 15] | Ratio hCT/hAmylin binding [3, 16] | Ratio hCT/hAmylin binding [3, 17] | Ratio hCT/hAmylin binding [3, 18] | Ratio hCT/hAmylin binding [3, 19] | Ratio hCT/hAmylin binding [3, 20] | Ratio hCT/hAmylin binding [3, 21] | SMILES
7.77 | ≥ 200 | 50 (≈ 224 µg/mL) | ≥ 200 | ≥ 200 | 68 (≈ 305 µg/mL) | ≥ 200 | ≥ 200 | ≥ 200 | 9.69 | 84.3 | 84.3 | 84.3 | 44.9 | 44.9 | 44.9 | 44.9 | 44.9 | 44.9 | 44.9 | CC[C@H](C)[C@H](NC(=O)[C@H](C)NC(=O)CNC(=O)[C@H](Cc1ccccc1)NC(=O)[C@H](CC(N)=O)NC(=O)[C@@H]1CCCN1C(=O)[C@H](CO)NC(=O)[C@H](CO)NC(=O)[C@H](Cc1c[nH]cn1)NC(=O)[C@H](CCCNC(=N)N)NC(=O)[C@H](CC(C)C)NC(=O)[C@H](Cc1ccccc1)NC(=O)[C@H](CC(N)=O)NC(=O)[C@H](C)NC(=O)[C@H](CC(C)C)NC(=O)[C@H](CCCNC(=N)N)NC(=O)[C@H](CCC(N)=O)NC(=O)[C@@H](NC(=O)[C@H](C)NC(=O)[C@@H]1CSSC[C@H](NC(=O)[C@H](CCCNC(=N)N)NC(=O)CNC(=O)CC[C@H](NC(=O)CCCCCCCCCCCCCCCCCCC(=O)O)C(=O)O)C(=O)N[C@@H](CC(N)=O)C(=O)N[C@@H]([C@@H](C)O)C(=O)N[C@@H](C)C(=O)N[C@@H]([C@@H](C)O)C(=O)N1)[C@@H](C)O)C(=O)N1CCC[C@H]1C(=O)N[C@@H](CO)C(=O)N[C@@H](CO)C(=O)N[C@H](C(=O)N[C@@H](CC(N)=O)C(=O)N[C@H](C(=O)NCC(=O)N[C@@H](CO)C(=O)N[C@@H](Cc1c[nH]cn1)C(=O)N[C@H](C(=O)N[C@@H](Cc1ccc(O)cc1)C(N)=O)[C@@H](C)O)C(C)C)[C@@H](C)O [Example 47] ({C20 diacid-γGlu}-GRCNTATCATQRLANFLRHSSPNFGAIPSSTNVGSHTY-NH2; disulfide 3-8)
6.39 | ≥ 200 | ≥ 200 | ≥ 200 | ≥ 200 | 165 (≈ 722 µg/mL) | ≥ 200 | ≥ 200 | ≥ 200 | 8.91 | 326.8 | 326.8 | 326.8 | 18.5 | 18.5 | 18.5 | 18.5 | 18.5 | 18.5 | 18.5 | CC[C@H](C)[C@H](NC(=O)[C@H](C)NC(=O)CNC(=O)[C@H](Cc1ccccc1)NC(=O)[C@H](CC(N)=O)NC(=O)[C@@H]1CCCN1C(=O)[C@H](CO)NC(=O)[C@H](CO)NC(=O)[C@H](Cc1c[nH]cn1)NC(=O)[C@H](CCCNC(=N)N)NC(=O)[C@H](CC(C)C)NC(=O)[C@H](Cc1ccccc1)NC(=O)[C@H](CC(N)=O)NC(=O)[C@H](C)NC(=O)[C@H](CC(C)C)NC(=O)[C@H](CCCNC(=N)N)NC(=O)[C@H](CCC(N)=O)NC(=O)[C@@H](NC(=O)[C@H](C)NC(=O)[C@@H]1CSSC[C@H](NC(=O)[C@@H](N)CCCCNC(=O)CC[C@H](NC(=O)CCCCCCCCCCCCCCC(=O)O)C(=O)O)C(=O)N[C@@H](CC(N)=O)C(=O)N[C@@H]([C@@H](C)O)C(=O)N[C@@H](C)C(=O)N[C@@H]([C@@H](C)O)C(=O)N1)[C@@H](C)O)C(=O)N1CCC[C@H]1C(=O)N[C@@H](CO)C(=O)N[C@@H](CO)C(=O)N[C@H](C(=O)N[C@@H](CC(N)=O)C(=O)N[C@H](C(=O)NCC(=O)N[C@@H](Cc1c[nH]cn1)C(=O)N[C@@H](CC(N)=O)C(=O)N[C@H](C(=O)N[C@@H](Cc1ccc(O)cc1)C(N)=O)[C@@H](C)O)C(C)C)[C@@H](C)O [Example 111]
7.98 | ≥ 200 | ≥ 200 | ≥ 200 | ≥ 200 | ≥ 200 | ≥ 200 | ≥ 200 | ≥ 200 | 9.79 | 63.2 | 63.2 | 63.2 | 13.3 | 13.3 | 13.3 | 13.3 | 13.3 | 13.3 | 13.3 | CC[C@H](C)[C@H](NC(=O)[C@H](C)NC(=O)CNC(=O)[C@H](Cc1ccccc1)NC(=O)[C@H](CC(N)=O)NC(=O)[C@@H]1CCCN1C(=O)[C@H](CO)NC(=O)[C@H](CO)NC(=O)[C@H](Cc1c[nH]cn1)NC(=O)[C@H](CCCNC(=N)N)NC(=O)[C@H](CC(C)C)NC(=O)[C@H](Cc1ccccc1)NC(=O)[C@H](CCC(=O)O)NC(=O)[C@H](C)NC(=O)[C@H](CC(C)C)NC(=O)[C@H](CCCNC(=N)N)NC(=O)[C@H](CCC(N)=O)NC(=O)[C@@H](NC(=O)[C@H](C)NC(=O)[C@@H]1CSSC[C@H](NC(=O)[C@@H](N)CCCCNC(=O)CC[C@H](NC(=O)CCCCCCCCCCCCCCCCCCC(=O)O)C(=O)O)C(=O)N[C@@H](CC(N)=O)C(=O)N[C@@H]([C@@H](C)O)C(=O)N[C@@H](C)C(=O)N[C@@H]([C@@H](C)O)C(=O)N1)[C@@H](C)O)C(=O)N1CCC[C@H]1C(=O)N[C@@H](CO)C(=O)N[C@@H](CO)C(=O)N[C@H](C(=O)N[C@@H](CC(N)=O)C(=O)N[C@H](C(=O)NCC(=O)N1CCC[C@H]1C(=O)N[C@@H](CCC(=O)O)C(=O)N[C@H](C(=O)N[C@@H](Cc1ccc(O)cc1)C(N)=O)[C@@H](C)O)C(C)C)[C@@H](C)O [Example 109] (H-K([γGlu-C20 diacid])CNTATCATQRLAEFLRHSSPNFGAIPSSTNVGPETY-NH2; disulfide 2-7 (inferred); N-terminus assumed)
